Laboratory results reported in patent US12281118B2, “Nitrogen-containing fused heterocyclic SHP2 inhibitor compound, preparation method, and use” (SHANGHAI RINGENE BIOPHARMA CO., LTD., priority 2018, dated 2025).
Read-outs that look alike come from different tables or passages of the source.

How the values were obtained:
[1] = tested on: MV4-11 leukemia cells; test: Inhibition of proliferation of MV4-11 leukemia cells (CellTiter-Glo, 72 h); assay type: cell-based; details: read-out: IC50 value, MV4-11 cell proliferation
Experimental: Specific experimental procedures: 1) At Day 0: Inoculating trypsin-digested cells in 96-well plate and suspending the plate in cell culture medium; measure cell density using an automatic cell counter, diluting the cells with the culture medium to appropriate density, adding 100 μl of cell suspension in the 96-well plate, and incubating a cell-free medium as a control well in a cell incubator with […] at 37° C. overnight; 2) Day 1: Treating test compounds of the cells using a drug for a total of 8 concentrations, and diluting at a 3× concentration, wherein 10 μM is a starting test concentration of the test compounds. […] IC50 values are obtained by a four-parameter regression using software attached to the plate reader (the specific results are shown in Table 2).

[2] = target: SHP2 enzyme (Homo sapiens (Human), UniProt Q06124); test: Inhibitory activity against SHP2 enzyme (Caliper conversion rate); assay type: biochemical; details: read-out: SHP2 Enzyme Inhibition IC50 Value
Experimental: (1) Preparing 1×Reaction Buffer according to the BPS Biosciences' Instructions for Use of the SHP2 enzyme. (2) Preparing a compound concentration gradient: Test the test compound at 10 μM under 3× dilution for 10 concentrations, diluting to a 100% dimethyl sulfoxide solution at a 100× final concentration in a 384-well plate, and diluting the compound with Precision 4× for 10 concentrations. Transferring 250 nL of the compound at the 100× final concentration to a target plate OptiPlate-384F using a dispenser Echo 550. […] (3) Preparing the activation peptide solution at a 5× final concentration with the 1×Reaction Buffer, adding 5 μL of the solution to a reaction plate, respectively, and centrifuging at 1000 rpm for 1 min. (4) Preparing an enzyme solution at a 2.5× final concentration with the 1×Reaction Buffer, adding 10 μL of the solution to the reaction plate, respectively, centrifuging at 1000 rpm for 1 min, and incubating at room temperature for 60 min. (5) Preparing a substrate peptide solution at a 2.5× final concentration with the 1×Reaction Buffer, centrifuging at 1000 rpm for 1 min, and incubating at room temperature for 30 min. (6) Adding 30 μL of stop test solution to stop the reaction, centrifuging at 1000 rpm for […], and mixing well by shaking. (7) Reading the conversion rate with a Caliper EZ Reader. (7) Data analysis:
Wherein: Conversion %/_sample is the reading of a conversion rate of a sample; Conversion %_min: mean of negative control wells, which represents the reading of a conversion rate in absence of enzyme activity wells; Conversion %_max: mean of a ratio of positive control wells, which represents the reading of a conversion rate in absence of compound inhibition wells.

[3] = Homo sapiens, MV4-11, 72 h, in uM

| SMILES | IC50 ([1]; Homo sapiens, MV4-11, 72 h) | IC50 [2] | IC50 [1, 3] | IC50 ([1]; 72 h) |
| --- | --- | --- | --- | --- |
| Cc1nc(N2CCC(C)(N)CC2)n2ncnc2c1-c1cccc(Cl)c1Cl [Example 21, 1-(8-(2,3-dichlorophenyl)-7-methyl-[1,2,4]triazole [1,5-c]pyrimidin-5-yl)-4-methylpiperidin-4-amine] | – | – | > 10 µM | – |
| Nc1nccc(Sc2c(CF)nc(N3CCC4(CC3)Cc3ccccc3[C@H]4N)n3ccnc23)c1Cl [Example 12, (S)-1′-(8-((2-amino-3-chloropyridin-4-yl)thio)-7-(fluoromethyl)imidazo [1,2-c]pyrimidin-5-yl)-1,3-dihydrospiro [indene-2,4′-piperidine]-1-amine] | 0.0247 µM | 2.9 nM | – | – |
| Cc1nc(N2CCC3(CC2)Cc2ccccc2[C@H]3N)n2ccnc2c1-c1ccnc(N)c1Cl [Example 15, (S)-1′-(8-(2-amino-3-chloropyridin-4-yl)-7-methylimidazo [1,2-c]pyrimidin-5-yl)-1,3-dihydrospiro [indene-2,4′-piperidine]-1-amine] | 0.135 µM | 12.1 nM | – | – |
| Cc1nc(N2CCC3(CC2)Cc2ncccc2[C@H]3N)n2ccnc2c1Sc1ccnc(N)c1Cl [Example 6, (S)-1′-(8-((2-amino-3-chloropyridin-4-yl)thio)-7-methylimidazo [1,2-c]pyrimidin-5-yl)-5,7-dihydrospiro [cyclopentano [b]pyridine-6,4′-piperidine]-5-amine] | 0.0087 µM | 1.3 nM | – | – |
| Cc1nc(N2CCC3(CC2)Oc2ccccc2[C@H]3N)n2ccnc2c1Sc1ccnc(N)c1Cl [Example 13, (R)-1′-(8-((2-amino-3-chloropyridin-4-yl)thio)-7-methylimidazo [1,2-c]pyrimidin-5-yl)-3H-spiro [benzofuran-2,4′-piperidine]-3-amine] | 0.0392 µM | 1.8 nM | – | – |
| Cc1nc(N2CCC(C)(N)CC2)n2cnnc2c1-c1cccc(Cl)c1Cl [Example 22, 1-(8-(2,3-dichlorophenyl)-7-methyl-[1,2,4]triazole [4,3-c]pyrimidin-5-yl)-4-methylpiperidin-4-amine] | – | – | > 10 µM | – |
| Cc1nc(N2CCC(C)(N)CC2)n2ccnc2c1-c1cccc(Cl)c1Cl [Comparative Compound 1, 1-(8-(2,3-dichlorophenyl)-7-methylimidazo [1,2-c]pyrimidin-5-yl)-4-methylpiperidin-4-amine, reference compound] | 1.41 µM | 141 nM | – | – |
| Cc1nc(N2CCC3(CC2)Cc2ccccc2[C@H]3N)n2ccnc2c1-c1cccnc1C(F)(F)F [Example 16, (S)-1′-(7-methyl-8-(2-(trifluoromethyl)pyridin-3-yl)imidazo [1,2-c]pyrimidin-5-yl)-1,3-dihydrospiro [indene-2,4′-piperidine]-1-amine] | 0.108 µM | 9.5 nM | – | – |
| Cc1nc(N2CCC(C)(N)CC2)n2ccnc2c1Sc1cccc(Cl)c1Cl [Example 25, 1-(8 ((2,3-dichlorophenyl)sulfanyl)-7-methylimidazole [1,2-c]pyrimidin-5-yl)-4-methylpiperidin-4-amine] | 1.36 µM | – | – | – |
| Cc1nc(N2CCC3(CC2)Cc2ccccc2[C@H]3N)n2ccnc2c1Sc1cccnc1C(F)(F)F [Example 2] | 0.0313 µM | – | – | – |
| CC1(N)CCN(c2nc(N)c(-c3cccc(Cl)c3Cl)c3nccn23)CC1 [Example 27, 5-(4-amino-4-methylpiperidin-1-yl)-8-(2,3-dichlorophenyl) imidazole [1,2-c] pyrimidin-7-amine] | – | 287 nM | – | 2.55 µM |
| Nc1nc(N2CCC3(CC2)Cc2ccccc2[C@H]3N)n2ccnc2c1Sc1cccnc1C(F)(F)F [Example 5] | < 0.0015 µM | 0.8 nM | – | – |
| Cc1cc(N2CCC(C)(N)CC2)n2ccnc2c1-c1cccc(Cl)c1Cl [Example 24, 1-(8-(2,3-dichlorophenyl)-7-methylimidazolo [1,2-a]pyridin-5-yl)-4-methylpiperidin-4-amine] | – | 706 nM | 5.4 µM | – |
| Cc1nc(N2CCC3(CC2)Cc2cc(F)c(F)cc2[C@H]3N)n2ccnc2c1Sc1ccnc(N)c1Cl [Example 8, (S)-1′-(8-((2-amino-3-chloropyridin-4-yl)thio)-7-methylimidazo [1,2-c]pyrimidin-5-yl)-5,6-difluoro-1,3-dihydrospiro [indene-2,4′-piperidine]-1-amine] | 0.012 µM | 3.7 nM | – | – |
| Cc1cc(N2CCC(C)(N)CC2)n2cnnc2c1-c1cccc(Cl)c1Cl [Example 23, 1-(8-(2,3-dichlorophenyl)-7-methyl-[1,2,4]triazole [4,3-a]pyridin-5-yl)-4-methylpiperidin-4-amine] | – | – | > 10 µM | – |
| Cc1nc(N2CCC3(CC2)Cc2ccccc2[C@H]3N)n2ccnc2c1Sc1ccnc(NC2CC2)c1Cl [Example 3, (S)-1′-(8-((3-chloro-2-(cyclopropylamino)pyridin-4-yl)thio)-7-methylimidazo [1,2-c]pyrimidin-5-yl)-1,3-dihydrospiro [indene-2,4′-piperidine]-1-amine] | 0.0028 µM | 1 nM | – | – |

More lines, main results first:

| IC50 ([1]; Homo sapiens, MV4-11, 72 h) | IC50 [2] | IC50 [1, 3] | SMILES | IC50 ([1]; 72 h) |
| --- | --- | --- | --- | --- |
| 0.687 µM | 29.5 nM | – | Cc1cc(N2CCC3(CC2)Cc2ccccc2[C@H]3N)n2ncnc2c1Sc1ccnc(N)c1Cl [Example 19, (S)-1′-(8-((2-amino-3-chloropyridin-4-yl)thio)-7-methyl-[1,2,4]triazolo [1,5-a]pyridin-5-yl)-1,3-dihydrospiro [indene-2,4′-piperidine]-1-amine] | – |
| 2.01 µM | – | – | CC1(N)CCN(c2nc(CF)c(-c3cccc(Cl)c3Cl)c3nccn23)CC1 [Example 28, 1-(8-(2,3-dichlorophenyl)-7-(fluoromethylene)imidazole [1,2-c]pyrimidin-5-yl)-4-methylpiperidin-4-amine] | – |
| 0.0094 µM | 3.8 nM | – | Cc1nc(N2CCC3(CC2)Cc2ccccc2C3N)n2ccnc2c1Sc1ccnc(N)c1Cl (centres unmarked) [Example 20, 1′-(8-((2-amino-3-chloropyridin-4-yl)thio)-7-methylimidazo [1,2-c]pyrimidin-5-yl)-1,3-dihydrospiro [indene-2,4′-piperidine]-1-amine] | – |
| 0.048 µM | 9.1 nM | – | Cc1cc(N2CCC3(CC2)Cc2ccccc2[C@H]3N)n2ccnc2c1Sc1ccnc(N)c1Cl [Example 17, (S)-1′-(8-((2-amino-3-chloropyridin-4-yl)thio)-7-methylimidazo [1,2-a]pyridin-5-yl)-1,3-dihydrospiro [indene-2,4′-piperidine]-1-amine] | – |
| 0.0184 µM | 3.1 nM | – | Cc1nc(N2CCC3(CC2)Cc2ncsc2[C@H]3N)n2ccnc2c1Sc1ccnc(N)c1Cl [Example 14, (S)-1′-(8-((2-amino-3-chloropyridin-4-yl)thio)-7-methylimidazo [1,2-c]pyrimidin-5-yl)-4,6-dihydrospiro [cyclopentano [d]thiazol-5,4′-piperidine]-6-amine] | – |
| 0.0093 µM | 2.1 nM | – | COc1ccc2c(c1)[C@@H](N)C1(CCN(c3nc(C)c(Sc4ccnc(N)c4Cl)c4nccn34)CC1)C2 [Example 7, (S)-1′-(8-((2-amino-3-chloropyridin-4-yl)thio)-7-methylimidazo [1,2-c]pyrimidin-5-yl)-6-methoxy-1,3-dihydrospiro [indene-2,4′-piperidine]-1-amine] | – |
| 0.147 µM | 6.1 nM | – | Cc1nc(N2CCC3(CCC[C@H]3N)CC2)n2ccnc2c1Sc1ccnc(N)c1Cl [Example 26, (R)-8-(8-((2-amino-3-chloropyridin-4-yl)thio)-7-methylimidazole [1,2-c]pyrimidin-5-yl)-8-azaspiro [4.5] quin-1-amine] | – |
| > 10 µM | 3460 nM | – | CC1(N)CCN(c2ncc(-c3cccc(Cl)c3Cl)c3nccn23)CC1 [Comparative Compound 2, 1-(8-(2,3-dichlorophenyl)imidazo [1,2-c]pyrimidin-5-yl)-4-methylpiperidin-4-amine, reference compound] | – |
| 0.86 µM | 24.6 nM | – | Cc1cc(N2CCC3(CC2)Cc2ccccc2[C@H]3N)n2cnnc2c1Sc1ccnc(N)c1Cl [Example 18, (S)-1′-(8-((2-amino-3-chloropyridin-4-yl)thio)-7-methyl-[1,2,4]triazolo [4,3-a]pyridin-5-yl)-1,3-dihydrospiro [indene-2,4′-piperidine]-1-amine] | – |
